Results published in PubChem BioAssay AID1963986 (Molecular Pharmacology Branch, DTP, NCI, 2024).

Tested on: 171881-019-R-J1-PDC tumor spheroid viability
Experiment: Anticancer human tumor 171881-019-R-J1-PDC patient-derived invasive breast carcinoma cell line growth inhibition [PI3K]
Settings: spheroids with HUVEC and MSC; for IC50: curve of first compound; for viability, T/C: stronger effect = lower value
Procedure, shortened: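 Spheroid viability read-out. Co-cultures contained the tumor line plus HUVEC and human MSCs. Each agent was paired with a PI3K inhibitor (inavolisib, alpelisib, duvelisib, copanlisib) across half-log dilutions starting at clinical Cmax, or at 10 microM when Cmax was unknown.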

[1] = second compound 0.0316 µM, first compound 0.0316 µM
[2] = second compound 0.0316 µM, first compound 0.1 µM
[3] = second compound 0.0316 µM, first compound 0.316 µM
[4] = second compound 0.0316 µM, first compound 1 µM
[5] = second compound 0.0316 µM, first compound 3.16 µM
[6] = second compound 0.0316 µM, first compound 10 µM
[7] = second compound 0.1 µM, first compound 0.0316 µM
[8] = second compound 0.1 µM, first compound 0.1 µM
[9] = second compound 0.1 µM, first compound 0.316 µM
[10] = second compound 0.1 µM, first compound 1 µM
[11] = second compound 0.1 µM, first compound 3.16 µM
[12] = second compound 0.1 µM, first compound 10 µM
[13] = second compound 0.316 µM, first compound 0.0316 µM
[14] = second compound 0.316 µM, first compound 0.1 µM
[15] = second compound 0.316 µM, first compound 0.316 µM
[16] = second compound 0.316 µM, first compound 1 µM
[17] = second compound 0.316 µM, first compound 3.16 µM
[18] = second compound 0.316 µM, first compound 10 µM
[19] = second compound 1 µM, first compound 0.0316 µM
[20] = second compound 1 µM, first compound 0.1 µM
[21] = second compound 1 µM, first compound 0.316 µM
[22] = second compound 1 µM, first compound 1 µM
[23] = second compound 1 µM, first compound 3.16 µM
[24] = second compound 1 µM, first compound 10 µM
[25] = second compound 0.00316 µM, first compound 0.0316 µM
[26] = second compound 0.00316 µM, first compound 0.1 µM
[27] = second compound 0.00316 µM, first compound 0.316 µM
[28] = second compound 0.00316 µM, first compound 1 µM
[29] = second compound 0.00316 µM, first compound 3.16 µM
[30] = second compound 0.00316 µM, first compound 10 µM
[31] = second compound 0.01 µM, first compound 0.0316 µM
[32] = second compound 0.01 µM, first compound 0.1 µM
[33] = second compound 0.01 µM, first compound 0.316 µM
[34] = second compound 0.01 µM, first compound 1 µM
[35] = second compound 0.01 µM, first compound 3.16 µM
[36] = second compound 0.01 µM, first compound 10 µM
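Further: spheroids exposed to compound for 7 days before viability read.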
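Wherever viability, T/C is given: 100% = DMSO vehicle-treated spheroids.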

## CC1(C)CCC(CN2CCN(c3ccc(C(=O)NS(=O)(=O)c4ccc(NCC5CCOCC5)c([N+](=O)[O-])c4)c(Oc4cnc5[nH]ccc5c4)c3)CC2)=C(c2ccc(Cl)cc2)C1 + Cc1nc(NC(=O)N2CCCC2C(N)=O)sc1-c1ccnc(C(C)(C)C(F)(F)F)c1
Second compound 0.0316 µM
  IC50: 3840 nM
Second compound 0.1 µM
  IC50: 3340 nM
Second compound 0.316 µM
  IC50: 1530 nM
Second compound 1 µM
  IC50: < 31.6 nM
Second compound 3.16 µM
  IC50: < 31.6 nM
Second compound 10 µM
  IC50: < 31.6 nM
[1]
  viability, T/C: 102%
[2]
  viability, T/C: 86.9%
[3]
  viability, T/C: 90.8%
[4]
  viability, T/C: 81.5%
[5]
  viability, T/C: 56.6%
[6]
  viability, T/C: 13.9%
[7]
  viability, T/C: 94.3%
[8]
  viability, T/C: 70.6%
[9]
  viability, T/C: 75.5%
[10]
  viability, T/C: 73.7%
[11]
  viability, T/C: 52%
[12]
  viability, T/C: 13.1%
[13]
  viability, T/C: 54.8%
[14]
  viability, T/C: 52.6%
[15]
  viability, T/C: 56.1%
[16]
  viability, T/C: 57.6%
[17]
  viability, T/C: 41%
[18]
  viability, T/C: 10.3%
[19]
  viability, T/C: 33.8%
[20]
  viability, T/C: 34.3%
[21]
  viability, T/C: 33.6%
[22]
  viability, T/C: 33.4%
[23]
  viability, T/C: 31.6%
[24]
  viability, T/C: 8.49%
Second compound 3.16 µM, first compound 0.0316 µM
  viability, T/C: 13.2%
Second compound 3.16 µM, first compound 0.1 µM
  viability, T/C: 14.2%
Second compound 3.16 µM, first compound 0.316 µM
  viability, T/C: 12.7%
Second compound 3.16 µM, first compound 1 µM
  viability, T/C: 14.6%
Second compound 3.16 µM, first compound 3.16 µM
  viability, T/C: 15.9%
Second compound 3.16 µM, first compound 10 µM
  viability, T/C: 5.35%
Second compound 10 µM, first compound 0.0316 µM
  viability, T/C: 3.36%
Second compound 10 µM, first compound 0.1 µM
  viability, T/C: 3.47%
Second compound 10 µM, first compound 0.316 µM
  viability, T/C: 3.28%
Second compound 10 µM, first compound 1 µM
  viability, T/C: 3.12%
Second compound 10 µM, first compound 3.16 µM
  viability, T/C: 3.52%
Second compound 10 µM, first compound 10 µM
  viability, T/C: 2.22%

## C[C@@H](NC(=O)c1ncnc(N)c1Cl)c1ncc(C(=O)Nc2cc(C(F)(F)F)c(Cl)cn2)s1 + CC(Nc1ccc2c(c1)OCCn1cc(N3C(=O)OCC3C(F)F)nc1-2)C(N)=O
Second compound 0.00316 µM
  IC50: 5950 nM
Second compound 0.01 µM
  IC50: 2620 nM
Second compound 0.0316 µM
  IC50: 399 nM
Second compound 0.1 µM
  IC50: < 31.6 nM
Second compound 0.316 µM
  IC50: < 31.6 nM
Second compound 1 µM
  IC50: < 31.6 nM
[25]
  viability, T/C: 71.3%
[26]
  viability, T/C: 88.5%
[27]
  viability, T/C: 84.2%
[28]
  viability, T/C: 80.4%
[29]
  viability, T/C: 63.7%
[30]
  viability, T/C: 38.8%
[31]
  viability, T/C: 80.3%
[32]
  viability, T/C: 78.5%
[33]
  viability, T/C: 65.8%
[34]
  viability, T/C: 70.3%
[35]
  viability, T/C: 44.4%
[36]
  viability, T/C: 27.4%
[1]
  viability, T/C: 51.4%
[2]
  viability, T/C: 53.9%
[3]
  viability, T/C: 49.5%
[4]
  viability, T/C: 46.5%
[5]
  viability, T/C: 31.1%
[6]
  viability, T/C: 17.1%
[7]
  viability, T/C: 38.9%
[8]
  viability, T/C: 35.7%
[9]
  viability, T/C: 33.8%
[10]
  viability, T/C: 31.6%
[11]
  viability, T/C: 20.1%
[12]
  viability, T/C: 10.7%
[13]
  viability, T/C: 27%
[14]
  viability, T/C: 24.5%
[15]
  viability, T/C: 24.9%
[16]
  viability, T/C: 23%
[17]
  viability, T/C: 13.5%
[18]
  viability, T/C: 6.3%
[19]
  viability, T/C: 20.7%
[20]
  viability, T/C: 20.9%
[21]
  viability, T/C: 19.3%
[22]
  viability, T/C: 16.4%
[23]
  viability, T/C: 9.28%
[24]
  viability, T/C: 3.79%

## Cn1nccc1Nc1nccc(-c2ccn(C(CO)c3ccc(Cl)c(F)c3)c(=O)c2)n1 (stereo unspecified) + COc1c(OCCCN2CCOCC2)ccc2c3n(c(=NC(=O)c4cnc(N)nc4)nc12)CCN3
Second compound 0.00316 µM
  IC50: 38.2 nM
Second compound 0.01 µM
  IC50: < 31.6 nM
Second compound 0.0316 µM
  IC50: < 31.6 nM
Second compound 0.1 µM
  IC50: < 31.6 nM
Second compound 0.316 µM
  IC50: < 31.6 nM
Second compound 1 µM
  IC50: < 31.6 nM
[25]
  viability, T/C: 51.4%
[26]
  viability, T/C: 42.5%
[27]
  viability, T/C: 28.6%
[28]
  viability, T/C: 18.1%
[29]
  viability, T/C: 14.3%
[30]
  viability, T/C: 11%
[31]
  viability, T/C: 44.5%
[32]
  viability, T/C: 32.1%
[33]
  viability, T/C: 21.4%
[34]
  viability, T/C: 12.2%
[35]
  viability, T/C: 9.48%
[36]
  viability, T/C: 7.46%
[1]
  viability, T/C: 19.3%
[2]
  viability, T/C: 14.8%
[3]
  viability, T/C: 8.54%
[4]
  viability, T/C: 5.82%
[5]
  viability, T/C: 4.42%
[6]
  viability, T/C: 2.75%
[7]
  viability, T/C: 6.44%
[8]
  viability, T/C: 4.39%
[9]
  viability, T/C: 3.29%
[10]
  viability, T/C: 2.41%
[11]
  viability, T/C: 2.36%
[12]
  viability, T/C: 0.87%
[13]
  viability, T/C: 1.92%
[14]
  viability, T/C: 1.3%
[15]
  viability, T/C: 1.85%
[16]
  viability, T/C: 1.35%
[17]
  viability, T/C: 0.41%
[18]
  viability, T/C: 0.33%
[19]
  viability, T/C: 0.78%
[20]
  viability, T/C: 0.82%
[21]
  viability, T/C: 0.76%
[22]
  viability, T/C: 0.86%
[23]
  viability, T/C: 1.32%
[24]
  viability, T/C: 0.5%
